# Data reported in publication PMC7924852, “The Emericellipsins A–E from an Alkalophilic Fungus Emericellopsis alkalina Show Potent Activity against Multidrug-Resistant Pathogenic Fungi” (Journal of Fungi, 2021).
# Non-standard residues stand in square brackets, D forms with d. Residues, ends and D or L forms follow the SMILES beside them. Orn = NCCC[C@H](N)C(=O)O
# Experiments:
# [1] = system: C. laurentii 325m; assay: Broth microdilution MIC and MFC (CLSI); type: cell-based, Cr. laurentii; conditions: Papiliotrema laurentii; C. laurentii 325m clinical isolate; RPMI 1640 pH 7.0, 35 °C, 24 h; read-out: MIC
# [2] = system: C. krusei 1447; assay: Broth microdilution MIC and MFC (CLSI); type: cell-based; conditions: Pichia kudriavzevii
# [3] = system: A. terreus 497; assay: Sensititre YeastOne antifungal susceptibility test; type: cell-based; conditions: Aspergillus terreus, 497
# [4] = system: C. parapsilosis 571; assay: Broth microdilution MIC and MFC (CLSI); type: cell-based; conditions: Lodderomyces parapsilosis
# [5] = system: Cryptococcus neoformans 297; assay: Broth microdilution MIC and MFC (CLSI); type: cell-based; conditions: Cryptococcus neoformans 297 clinical isolate; RPMI 1640 pH 7.0, 35 °C, 24 h; read-out: MIC
# [6] = system: Candida albicans 1402; assay: Broth microdilution MIC and MFC (CLSI); type: cell-based
# [7] = system: C. glabrata 1402; assay: Broth microdilution MIC and MFC (CLSI); type: cell-based; conditions: Nakaseomyces glabratus
# [8] = system: C. glabrata 1402; assay: Sensititre YeastOne antifungal susceptibility test; type: cell-based; conditions: Nakaseomyces glabratus, 1402
# [9] = system: Cr. laurentii 325m; assay: Sensititre YeastOne antifungal susceptibility test; type: cell-based; conditions: Papiliotrema laurentii, 325M
# [10] = system: Aspergillus niger 1133m; assay: Sensititre YeastOne antifungal susceptibility test; type: cell-based; conditions: Aspergillus niger, 1133M
# [11] = system: Cryptococcus neoformans 297; assay: Sensititre YeastOne antifungal susceptibility test; type: cell-based; conditions: Cryptococcus neoformans, 297
# [12] = system: A. fumigatus 390m; assay: Sensititre YeastOne antifungal susceptibility test; type: cell-based; conditions: Aspergillus fumigatus, 390M
# [13] = system: C. krusei 1447; assay: Sensititre YeastOne antifungal susceptibility test; type: cell-based; conditions: Pichia kudriavzevii, 1447
# [14] = system: C. tropicalis 156; assay: Broth microdilution MIC and MFC (CLSI); type: cell-based; conditions: Candida tropicalis
# [15] = system: Candida albicans 1402; assay: Sensititre YeastOne antifungal susceptibility test; type: cell-based; conditions: Candida albicans, 1402
# [16] = system: C. parapsilosis 571; assay: Sensititre YeastOne antifungal susceptibility test; type: cell-based; conditions: Lodderomyces parapsilosis, 571
# [17] = system: C. tropicalis 156; assay: Sensititre YeastOne antifungal susceptibility test; type: cell-based; conditions: Candida tropicalis, 156
# [18] = system: human erythrocytes; assay: Hemolytic activity; type: cell-based; conditions: 20 μM, 1 h, 37 °C, relative to H2O control = 100%, OD 540 nm or 570 nm, triplicate, mean
# Method: Erythrocytes were isolated from the peripheral blood of healthy donors after incubation at 4 °C for 2–3 h. All the donors are males, 35–38 years old. All of them have approved to collect blood samples, and the authors have permissions filled. All the blood samples have been destroyed after the experiments finished. The red blood cell suspension (100 μL) was pelleted, washed twice with saline, then the pellet was resuspended in 500 μL saline or distilled water (positive control of hemolysis). The compounds were added (final concentration of 20 μM). The samples were incubated for 1 h at 37 °C and centrifuged at 2000 rpm for 1.5 min. The OD of supernatants was measured on a Multiscan spectrophotometer FC (Thermo Scientific, Waltham, MA, USA) at a wavelength of 540 nm. The percent hemolysis was calculated relative to the positive control, taken as 100%.
# Erythrocytes were isolated from the human blood: On the day of the study, blood was taken from the donor’s cubital vein into a test tube with an anticoagulant. The blood was incubated at 4 °C for 2‒3 h. A suspension of erythrocytes (100 μL) was diluted with a physiological buffer (pH 7.2) to a total volume of 500 μL. Solutions of the test substances with an initial concentration of […] (DMSO) were diluted with a PBS buffer (1:10). The resulting solutions were introduced into Eppendorf tubes in the amounts required to create the studied concentration (5, 10, or 20 μM). A mixture of PBS with erythrocytes was added to a total volume of 200 μL. The control (C) was a mixture of erythrocytes with H2O (100% of hemolysis). The intact control solution (I) was a mixture of erythrocytes with the PBS and solvent (DMSO). The antibiotic gramicidin S (Gram S) was used as a control sample with active hemolysis. The mixture was incubated for 1 h at 37 °C. The measurement of the optical density of the supernatants was carried out on a BioTek ELx800 automatic microplate photometer (USA) at 570 nm. The optical density of the liquid above the sediment in the control sample with H2O was taken as 100%.
# [19] = system: A. terreus 497; assay: Broth two-fold microdilution MIC (CLSI); type: cell-based; conditions: A. terreus 497 clinical isolate; RPMI 1640 pH 7.0, 35 °C, 48 h
# [20] = system: A. fumigatus 390 m; assay: Disc-diffusion antifungal assay; type: cell-based, Aspergillus fumigatus; conditions: 40 µg/disc, pathogenic clinical isolate
# [21] = system: isolates of Aspergillus spp.; assay: Broth microdilution MIC, ranges over mould isolates; type: cell-based; conditions: range over opportunistic and clinical isolates of Aspergillus spp. (Table 4)
# [22] = system: Aspergillus niger ATCC 16404; assay: Disc-diffusion antifungal assay; type: cell-based; conditions: 40 µg/disc; A. niger ATCC 16404
# [23] = system: A. niger 1133 m; assay: Broth two-fold microdilution MIC (CLSI); type: cell-based, Aspergillus niger; conditions: A. niger 1133 m clinical isolate; RPMI 1640 pH 7.0, 35 °C, 48 h
# [24] = system: A. terreus 3 K; assay: Broth two-fold microdilution MIC (CLSI); type: cell-based; conditions: A. terreus 3 K; RPMI 1640 pH 7.0, 35 °C, 48 h
# [25] = system: A. terreus 3 K; assay: Disc-diffusion antifungal assay; type: cell-based; conditions: 40 µg/disc
# [26] = system: A. fumigatus VKM F-37; assay: Disc-diffusion antifungal assay; type: cell-based, Aspergillus fumigatus; conditions: 40 µg/disc
# [27] = system: reference and clinical strains of Aspergillus; assay: Disc-diffusion antifungal assay, Aspergillus strains; type: cell-based; conditions: disc-diffusion, reference and clinical strains of Aspergillus
# [28] = system: A. terreus 497; assay: Disc-diffusion antifungal assay; type: cell-based; conditions: 40 µg/disc; A. terreus 497, pathogenic clinical isolate
# [29] = system: A. niger 1133 m; assay: Disc-diffusion antifungal assay; type: cell-based, Aspergillus niger; conditions: 40 µg/disc, pathogenic clinical isolate
# [30] = system: A. fumigatus 390 m; assay: Broth two-fold microdilution MIC (CLSI); type: cell-based, Aspergillus fumigatus; conditions: A. fumigatus 390 m clinical isolate; RPMI 1640 pH 7.0, 35 °C, 48 h
# [31] = system: A. niger ATCC 16404; assay: Broth two-fold microdilution MIC (CLSI); type: cell-based, Aspergillus niger; conditions: A. niger ATCC 16404; RPMI 1640 pH 7.0, 35 °C, 48 h, no visible growth
# [32] = system: A. fumigatus VKM F-37; assay: Broth two-fold microdilution MIC (CLSI); type: cell-based, Aspergillus fumigatus; conditions: A. fumigatus VKM F-37; RPMI 1640 pH 7.0, 35 °C, 48 h
compound,measurement,setting,value
"CC[C@H](C)C[C@H](C)CCCCCCCCC(=O)N[C@H]1C[C@@H](O)[C@@H](NCCN)NC(=O)[C@@H]2[C@@H](O)CCN2C(=O)[C@H]([C@H](O)CCN)NC(=O)[C@H]([C@H](O)[C@@H](O)c2ccc(O)cc2)NC(=O)[C@@H]2C[C@@H](O)CN2C(=O)[C@H]([C@@H](C)O)NC1=O [CAS, Caspofungin]",MIC,[1],16 µg/mL
same,MFC,"[2]; C. krusei 1447, lowest concentration causing 95% death, read-out: MFC",1 µg/mL
same,MIC,"[2]; C. krusei 1447 clinical isolate, RPMI 1640 pH 7.0, 35 °C, 24 h, read-out: MIC",0.25 µg/mL
same,MIC,[3],> 16 µg/mL
same,MFC,"[4]; C. parapsilosis 571, lowest concentration causing 95% death, read-out: MFC",1 µg/mL
same,MIC,"[4]; C. parapsilosis 571 clinical isolate, RPMI 1640 pH 7.0, 35 °C, 24 h, read-out: MIC",1 µg/mL
same,MIC,[5],> 64 µg/mL
same,MFC,"[6]; Candida albicans 1402, lowest concentration causing 95% death, plated on PDA agar, read-out: MFC",0.5 µg/mL
same,MIC,"[6]; Candida albicans 1402 clinical isolate, RPMI 1640 pH 7.0, 35 °C, 24 h, read-out: MIC",0.06 µg/mL
same,MFC,"[7]; C. glabrata 1402, lowest concentration causing 95% death, read-out: MFC",0.5 µg/mL
same,MIC,"[7]; C. glabrata 1402 clinical isolate, RPMI 1640 pH 7.0, 35 °C, 24 h, read-out: MIC",0.06 µg/mL
same,MIC,[8],0.06 µg/mL
same,MIC,[9],16 µg/mL
same,MIC,[10],> 16 µg/mL
same,MIC,[11],16 µg/mL
same,MIC,[12],> 16 µg/mL
same,MIC,[13],0.25 µg/mL
same,MFC,"[14]; C. tropicalis 156, lowest concentration causing 95% death, read-out: MFC",0.5 µg/mL
same,MIC,"[14]; C. tropicalis 156 clinical isolate, RPMI 1640 pH 7.0, 35 °C, 24 h, read-out: MIC",0.06 µg/mL
same,MIC,[15],0.06 µg/mL
same,MIC,[16],1 µg/mL
same,MIC,[17],0.06 µg/mL
CC(C)C[C@@H]1NC(=O)[C@H](CCCN)NC(=O)[C@H](C(C)C)NC(=O)[C@@H]2CCCN2C(=O)[C@@H](Cc2ccccc2)NC(=O)[C@H](CC(C)C)NC(=O)[C@H](CCCN)NC(=O)[C@H](C(C)C)NC(=O)[C@@H]2CCCN2C(=O)[C@@H](Cc2ccccc2)NC1=O [gramicidin S] (cyclo(L[dF]PV[Orn]L[dF]PV[Orn])),hemolysis,[18],100%
"Methyldecanoyl-MePro-AHMOD-Ala-Aib-Ile-Aib-βAla-Alaol-Glyol [EmiB, emericellipsin B, homologue of emericellipsin A, nonribosomal peptaibol]",Minimal Inhibitory Concentration (MIC),[19],4 µg/mL
same,Zone of Inhibition,[20],0 mm
same,MIC range,[21],4 to 8 µg/mL
same,Zone of Inhibition,[22],10 ± 0.13 mm
same,Minimal Inhibitory Concentration (MIC),[23],8 µg/mL
same,Minimal Inhibitory Concentration (MIC),[24],4 µg/mL
same,Zone of Inhibition,[25],0 mm
same,Zone of Inhibition,[26],0 mm
same,antifungal activity against Aspergillus strains (in words),[27],low activity only against A. niger strains
same,Zone of Inhibition,[28],0 mm
same,Zone of Inhibition,[29],11 ± 0.170 mm
same,Minimal Inhibitory Concentration (MIC),[30],8 µg/mL
same,Minimal Inhibitory Concentration (MIC),[31],8 µg/mL
same,Minimal Inhibitory Concentration (MIC),[32],8 µg/mL
"Methyldecanoyl-MePro-AHMOD-Ala-Aib-Ile-Iva-βAla-Aib-Glyol [EmiE, emericellipsin E, homologue of emericellipsin A, nonribosomal peptaibol]",Minimal Inhibitory Concentration (MIC),[19],64 µg/mL
same,Zone of Inhibition,[20],0 mm
same,MIC range,[21],> 64 µg/mL
same,Zone of Inhibition,[22],0 mm
same,Minimal Inhibitory Concentration (MIC),[23],˃64 µg/mL
same,Minimal Inhibitory Concentration (MIC),[24],32 µg/mL
same,Zone of Inhibition,[25],0 mm
same,Zone of Inhibition,[26],0 mm
same,antifungal activity against Aspergillus strains (in words),[27],totally inactive
same,Zone of Inhibition,[28],0 mm
same,Zone of Inhibition,[29],0 mm
same,Minimal Inhibitory Concentration (MIC),[30],˃64 µg/mL
same,Minimal Inhibitory Concentration (MIC),[31],˃64 µg/mL
same,Minimal Inhibitory Concentration (MIC),[32],˃64 µg/mL
"Methyldecanoyl-MePro-AHMOD-Ala-Iva-Ile-Iva-βAla-Alaol-Glyol [EmiD, emericellipsin D, homologue of emericellipsin A, nonribosomal peptaibol]",Minimal Inhibitory Concentration (MIC),[19],16 µg/mL
same,Zone of Inhibition,[20],0 mm
same,MIC range,[21],16 to 32 µg/mL
same,Zone of Inhibition,[22],0 mm
same,Minimal Inhibitory Concentration (MIC),[23],˃64 µg/mL
same,Minimal Inhibitory Concentration (MIC),[24],16 µg/mL
same,Zone of Inhibition,[25],0 mm
same,Zone of Inhibition,[26],0 mm
same,antifungal activity against Aspergillus strains (in words),[27],totally inactive
same,Zone of Inhibition,[28],0 mm
same,Zone of Inhibition,[29],0 mm
same,Minimal Inhibitory Concentration (MIC),[30],32 µg/mL
same,Minimal Inhibitory Concentration (MIC),[31],˃64 µg/mL
same,Minimal Inhibitory Concentration (MIC),[32],32 µg/mL
